Experimental data published in patent US10662203B2, “Pyrido[2,3-b]indole compounds for the treatment and prophylaxis of bacterial infection” (Hoffmann-La Roche Inc., priority 2017, dated 2020).

How the values were obtained:
Assay in all cases: 50% growth inhibitory concentration (IC50) determination assay
Type in all cases: cell-based
Settings in all cases: Iso-Sensitest broth, 0.098 = detection limit
A. baumannii (ATCC17978) = tested on: A. baumannii (ATCC17978)
Protocol: (§1) Stock compounds in DMSO were serially two-fold diluted (range from 50 to 0.097 μM final concentration) in 384 wells microtiter plates and inoculated with 49 μL the bacterial suspension in Iso-Sensitest broth medium to have a final cell concentration of ˜5×10^5 CFU/mL in a final volume/well of 50 μL/well. Microtiter plates were incubated at 35±2° C. Bacterial cell growth was determined with the measurement of optical density at λ=600 nm each 20 minutes over a time course of 16 h. […] GP-6 (Example 4.131 disclosed in WO 2012/125746 A1) was used as the reference compound in Table 6-8. […] The data of IC50 over S. aureus (ATCC29213), K. pneumoniae (ATCC10031), and A. baumannii (ATCC17978) are illustrated in Table 6.

S. aureus (ATCC29213) = tested on: S. aureus (ATCC29213)
Protocol: as §1

[1] = tested on: K. pneumoniae (ATCC10031)
Protocol: as §1

[2] = Acinetobacter baumannii, ATCC17978, A. baumannii ATCC17978

Row | SMILES | IC50 (A. baumannii (ATCC17978); [2]) [µM] | IC50 (S. aureus (ATCC29213); Staphylococcus aureus) [µM] | IC50 ([1]; Klebsiella pneumoniae) [µM] | IC50 (A. baumannii (ATCC17978); A. baumannii ATCC17978) [µM] | IC50 (S. aureus (ATCC29213)) [µM] | IC50 [1] [µM]
1 | CNc1cc(F)cc2c1[nH]c1ncc(-c3cnc4c(c3)c(=O)c(C(=O)O)cn4C)c(N3CCCN(C)CC3)c12 [Example 1.185] | 0.524 | 0.321 | < 0.098 |  |  | 
2 | CNc1cc(F)c(F)c2c1[nH]c1ncc(-c3cnc4c(c3)c(=O)c(C(=O)O)cn4Cc3cnco3)c(N(C)C)c12 [Example 1.87] | 0.49 | < 0.098 | 0.122 |  |  | 
3 | CNc1cc(F)c(F)c2c1[nH]c1ncc(-c3cnc4c(c3)c(=O)c(C(=O)O)cn4C)c(N3CCSCC3)c12 [Example 1.97] | 0.507 | < 0.098 | 0.257 |  |  | 
4 | CNc1cc(F)c(F)c2c1[nH]c1ncc(-c3cnc4c(c3)c(=O)c(C(=O)O)cn4[C@@H]3CCNC3)c(N3CCCC3)c12 [Example 1.156] | 0.478 | < 0.098 | < 0.098 |  |  | 
5 | CNc1cc(F)c(F)c2c1[nH]c1ncc(-c3cnc4c(c3)c(=O)c(C(=O)O)cn4NCC(F)(F)F)c(N(C)C)c12 [Example 5.03, 6-(4-(dimethylamino)-5,6-difluoro-8-(methylamino)-9H-pyrido[2,3-b]indol-3-yl)-4-oxo-1-((2,2,2-trifluoroethyl)amino)-1,4-dihydro-1,8-naphthyridine-3-carboxylic acid] | 0.745 | < 0.098 | 0.275 |  |  | 
6 | CNc1cc(F)c(F)c2c1[nH]c1ncc(-c3cnc4c(c3)c(=O)c(C(=O)O)cn4CC3CCCO3)c(N3CCOCC3)c12 (stereo not drawn) [Example 1.39] | 0.363 | < 0.098 | 0.19 |  |  | 
7 | CNc1cc(F)c(F)c2c1[nH]c1ncc(-c3cnc4c(c3)c(=O)c(C(=O)O)cn4C3CCNC3)c(N3CCCC3)c12 (stereo not drawn) [Example 1.89] |  |  |  | 0.315 | < 0.098 | < 0.098
8 | CNc1cc(F)c(F)c2c1[nH]c1ncc(-c3cnc4c(c3)c(=O)c(C(=O)O)cn4CC3(O)CC3)c(N(C)C)c12 [Example 1.146] | 0.525 | < 0.098 | 0.411 |  |  | 
9 | CNc1cc(F)c(F)c2c1[nH]c1ncc(-c3cnc4c(c3)c(=O)c(C(=O)O)cn4C3CCNC3)c(N3CCCC3)c12 (stereo not drawn) [Example 1.65] | 0.378 | < 0.098 | < 0.098 |  |  | 
10 | CNc1cc(F)c(F)c2c1[nH]c1ncc(-c3cnc4c(c3)c(=O)c(C(=O)O)cn4N(C)C)c(N3CCOCC3)c12 [Example 1.180] | 0.353 | < 0.098 | 0.112 |  |  | 
11 | CNc1cc(F)cc2c1[nH]c1ncc(-c3cnc4c(c3)c(=O)c(C(=O)O)cn4C(C)CN(C)C)c(N3CCOCC3)c12 (stereo not drawn) [Example 1.70] | 0.619 | < 0.098 | < 0.098 |  |  | 
12 | CNc1cc(F)c(F)c2c1[nH]c1ncc(-c3cnc4c(c3)c(=O)c(C(=O)O)cn4C3CCOC3)c(N(C)C)c12 (stereo not drawn) [Example 1.21] | 0.469 | < 0.098 | 0.154 |  |  | 
13 | CNc1cc(F)c(F)c2c1[nH]c1ncc(-c3cnc4c(c3)c(=O)c(C(=O)O)cn4C)c(N3C[C@@H]4[C@@H](C3)OCCN4C)c12 [Example 3.24B] | 0.371 | < 0.098 | < 0.098 |  |  | 
14 | CNc1c(F)c(F)cc2c1[nH]c1ncc(-c3cnc4c(c3)c(=O)c(C(=O)O)cn4C3CCNC3)c(N3CCCC3)c12 (stereo not drawn) [Example 1.76] | 0.643 | < 0.098 | < 0.098 |  |  | 
15 | CNc1cc(F)c(F)c2c1[nH]c1ncc(-c3cnc4c(c3)c(=O)c(C(=O)O)cn4CCOC)c(N(C)C)c12 [Example 1.24] | 0.519 | < 0.098 | 0.238 |  |  | 

The next lines start with the values.

Row | IC50 (A. baumannii (ATCC17978); [2]) [µM] | IC50 (S. aureus (ATCC29213); Staphylococcus aureus) [µM] | IC50 ([1]; Klebsiella pneumoniae) [µM] | IC50 (A. baumannii (ATCC17978); A. baumannii ATCC17978) [µM] | IC50 (S. aureus (ATCC29213)) [µM] | IC50 [1] [µM] | SMILES
16 | 0.049 | < 0.098 | < 0.098 |  |  |  | CNc1cc(F)c(F)c2c1[nH]c1ncc(-c3cnc4c(c3)c(=O)c(C(=O)O)cn4C)c(N3CCC(NC4CC4)C3)c12 (stereo not drawn) [Example 1.115]
17 | 0.195 | < 0.098 | < 0.098 |  |  |  | CNc1cc(F)c(F)c2c1[nH]c1ncc(-c3cnc4c(c3)c(=O)c(C(=O)O)cn4C)c(N3CCC(CN(C)CCOC)C3)c12 (stereo not drawn) [Example 1.142]
18 | 0.276 | < 0.098 | 0.282 |  |  |  | CNc1cc(F)c(F)c2c1[nH]c1ncc(-c3cnc4c(c3)c(=O)c(C(=O)O)cn4C3CC3)c(N(C)C)c12 [Example 1.95]
19 | 0.111 | < 0.098 | < 0.098 |  |  |  | CNc1cc(F)c(F)c2c1[nH]c1ncc(-c3cnc4c(c3)c(=O)c(C(=O)O)cn4NC)c(N3CC4[C@H](CC[C@H]4N(C)C)C3)c12 (stereo partly drawn) [Example 1.284]
20 | 0.334 | < 0.098 | < 0.098 |  |  |  | CNc1cc(F)cc2c1[nH]c1ncc(-c3cnc4c(c3)c(=O)c(C(=O)O)cn4C)c(N3CC4[C@@H](C3)OCCN4C)c12 (stereo partly drawn) [Example 1.112]
21 | 0.308 | < 0.098 | < 0.098 |  |  |  | CNc1cc(F)c(F)c2c1[nH]c1ncc(-c3cnc4c(c3)c(=O)c(C(=O)O)cn4NC)c(N3CCC4(CCN4C)C3)c12 (stereo not drawn) [Example 1.238]
22 | 0.19 | < 0.098 | < 0.098 |  |  |  | CNc1cc(F)c(F)c2c1[nH]c1ncc(-c3cnc4c(c3)c(=O)c(C(=O)O)cn4C)c(N3CC[C@]4(CN(C)CCO4)C3)c12 [Example 3.16B]
23 | 0.248 | < 0.098 | < 0.098 |  |  |  | CNc1cc(F)cc2c1[nH]c1ncc(-c3cnc4c(c3)c(=O)c(C(=O)O)cn4C)c(N3CCCOCC3)c12 [Example 1.60]
24 | 0.161 | < 0.098 | < 0.098 |  |  |  | CNc1cc(F)c(F)c2c1[nH]c1ncc(-c3cnc4c(c3)c(=O)c(C(=O)O)cn4C)c(N3CC[C@@]4(CN(C)CCO4)C3)c12 [Example 3.16A]
25 | 0.326 | < 0.098 | 0.132 |  |  |  | CCn1cc(C(=O)O)c(=O)c2cc(-c3cnc4[nH]c5c(NC)cc(F)c(F)c5c4c3N(C)C)cnc21 [Example 1.18]
26 | 0.235 | < 0.098 | < 0.098 |  |  |  | CNc1cc(F)c(F)c2c1[nH]c1ncc(-c3cnc4c(c3)c(=O)c(C(=O)O)cn4CC(C)(C)N(C)C)c(N(C)C)c12 [Example 1.178]
27 | 0.134 | < 0.098 | < 0.098 |  |  |  | CNc1cc(F)cc2c1[nH]c1ncc(-c3cnc4c(c3)c(=O)c(C(=O)O)cn4C)c(N3CCC(C)(CN(C)C)C3)c12 (stereo not drawn) [Example 1.102]
28 | 0.137 | < 0.098 | < 0.098 |  |  |  | CCNc1cc(F)c(F)c2c1[nH]c1ncc(-c3cnc4c(c3)c(=O)c(C(=O)O)cn4C)c(N3CCC(N(C)C)C3)c12 (stereo not drawn) [Example 1.104]
29 | 0.277 | < 0.098 | < 0.098 |  |  |  | CNc1cc(F)cc2c1[nH]c1ncc(-c3cnc4c(c3)c(=O)c(C(=O)O)cn4C)c(N3CCCC3)c12 [Example 1.46]
30 | 0.257 | < 0.098 | 0.118 |  |  |  | CNc1cc(F)c(F)c2c1[nH]c1ncc(-c3cnc4c(c3)c(=O)c(C(=O)O)cn4C)c(N3CCC4(C[C@@H]4N(C)C)C3)c12 (stereo partly drawn) [Example 6.01, 6-(4-(trans-2-(Dimethylamino)-5-azaspiro[2.4]heptan-5-yl)-5,6-difluoro-8-(methylamino)-9H-pyrido[2,3-b]indol-3-yl)-1-methyl-4-oxo-1,4-dihydro-1,8-naphthyridine-3-carboxylic acid]
31 | 0.229 | < 0.098 | < 0.098 |  |  |  | CNc1cc(F)cc2c1[nH]c1ncc(-c3cnc4c(c3)c(=O)c(C(=O)O)cn4C)c(N3C[C@H](F)[C@@H](N(C)C)C3)c12 [Example 1.169]
